Experimental data reported in patent US8846653B2, “Delta-tocotrienol treatment and prevention of pancreatic cancer” (University of South Florida, priority 2006, dated 2014).

What was measured:
Assay type in all cases: cell-based, human
[1] = test system: SW1990 pancreatic cancer cells; assay: MTS assay of SW1990 cultures, single 50 μM dose; conditions: SW1990, 50 μM
Summary of the method: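 MTS-based viability was measured 24, 48 or 72 h after a single 50 μM treatment; the agents were α/β/γ/δ-tocotrienol, α/β-tocopherol, tocopherol succinate, geranylgeraniol or succinic acid. The cells were SW1990, cultured in 10% FBS DMEM. Vehicle (ethanol-extracted olive oil) cultures ran in parallel as reference.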

BXPC3 cells = assay: MTT assay of BXPC3 cultures, single 50 μM dose; design: MTT assay result, run 1 / MTT assay result, run 2 / MTT assay result, run 3 / MTT assay result, run 4 / MTT assay result, run 5 / MTT assay result, run 6 / MTT assay result, run 7 / MTT assay result, av (average) / MTT assay result, av-blank / MTT assay result, av: unit not given here; conditions: BXPC3, 50 μM; for MTT assay result, av-blank: average minus blank
Summary of the method: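 Viability measured by MTT assay 48 or 120 hours after one 50 μM treatment with tocol-family compounds, geranylgeraniol, succinic acid or vehicle, with untreated cultures in parallel. BXPC3 cells grown in FBS-supplemented medium, 37° C, humidified 5% CO2.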

MiaPaCa-2 cells = assay: MTT assay of MiaPaCa2 cultures, single 50 μM dose; design: rel amt (relative value set to the control): unit not given here; conditions: MiaPaCa2, 50 μM; for MTT assay result, av-blank: average minus blank; for MTT assay result, av: average of 7 runs
Summary of the method: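 Viability measured by MTT 48 or 120 hours post-treatment, with a vehicle-only (ethanol-extracted olive oil) culture as control. MiaPaCa-2 cultures received one 50 μM exposure to a tocotrienol, tocopherol, tocopherol succinate, geranylgeraniol or succinic acid.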

In the case of `Cc1c(C)c2c(c(C)c1OC(=O)CCC(=O)O)CC[C@@](C)(CCC[C@H](C)CCC[C@H](C)CCCC(C)C)O2` [TS, tocopherol succinate], the “rel amnt (relative value set to the control)” value ([1]; 24 hours) is reported as 110, the “MTS assay result, run 1” value ([1]; 24 hours) is reported as 0.155 and the “MTS assay result, run 2” value ([1]; 24 hours) is reported as 0.168. The “MTS assay result, run 3” value ([1]; 24 hours) was 0.164, the “MTS assay result, run 4” value ([1]; 24 hours) was 0.158 and the “MTS assay result, run 5” value ([1]; 24 hours) was 0.155. For the same compound, the “MTS assay result, run 6” value ([1]; 24 hours) was 0.163, the “MTS assay result, run 7” value ([1]; 24 hours) was 0.165 and the “MTS assay result, run 8” value ([1]; 24 hours) was 0.167. For the same compound, the “MTS assay result, run 9” value ([1]; 24 hours) was 0.162, the “rel amnt (relative value set to the control)” value ([1]; 48 hours) was 104 and the “MTS assay result, run 1” value ([1]; 48 hours) was 0.122. The “MTS assay result, run 2” value ([1]; 48 hours) was 0.166, the “MTS assay result, run 3” value ([1]; 48 hours) was 0.16 and the “MTS assay result, run 4” value ([1]; 48 hours) was 0.135. For the same compound, the “MTS assay result, run 5” value ([1]; 48 hours) was 0.148, the “MTS assay result, run 6” value ([1]; 48 hours) was 0.174 and the “MTS assay result, run 7” value ([1]; 48 hours) was 0.18. The “MTS assay result, run 8” value ([1]; 48 hours) was 0.173, the “MTS assay result, run 9” value ([1]; 48 hours) was 0.157 and the “rel amnt (relative value set to the control)” value ([1]; 72 hours) was 207. The “MTS assay result, run 1” value ([1]; 72 hours) was 0.998, the “MTS assay result, run 2” value ([1]; 72 hours) was 0.962 and the “MTS assay result, run 3” value ([1]; 72 hours) was 1.02. The “MTS assay result, run 4” value ([1]; 72 hours) was 0.887, the “MTS assay result, run 5” value ([1]; 72 hours) was 0.936 and the “MTS assay result, run 6” value ([1]; 72 hours) was 0.897. For the same compound, the “MTS assay result, run 7” value ([1]; 72 hours) was 0.85, the “MTS assay result, run 8” value ([1]; 72 hours) was 0.801 and the “MTS assay result, run 9” value ([1]; 72 hours) was 0.918. The “rel amt (relative value set to the control)” value (BXPC3 cells; 48 hours) was 100, the “MTT assay result, av-blank” value (BXPC3 cells; 48 hours) was 0.229 and the “MTT assay result, av (average)” value (BXPC3 cells; 48 hours, average of 7 runs) was 0.278. For the same compound, the “MTT assay result, run 1” value (BXPC3 cells; 48 hours) was 0.271, the “MTT assay result, run 2” value (BXPC3 cells; 48 hours) was 0.274 and the “MTT assay result, run 3” value (BXPC3 cells; 48 hours) was 0.296. For the same compound, the “MTT assay result, run 4” value (BXPC3 cells; 48 hours) was 0.271, the “MTT assay result, run 5” value (BXPC3 cells; 48 hours) was 0.282 and the “MTT assay result, run 6” value (BXPC3 cells; 48 hours) was 0.274. For the same compound, the “MTT assay result, run 7” value (BXPC3 cells; 48 hours) was 0.277, the “rel amt (relative value set to the control)” value (BXPC3 cells; 120 hours (5 days)) was 17 and the “MTT assay result, av-blank” value (BXPC3 cells; 120 hours (5 days)) was 0.097. The “MTT assay result, av” value (BXPC3 cells; 120 hours (5 days), average of 7 runs) was 0.152, the “MTT assay result, run 1” value (BXPC3 cells; 120 hours (5 days)) was 0.192 and the “MTT assay result, run 2” value (BXPC3 cells; 120 hours (5 days)) was 0.127. The “MTT assay result, run 3” value (BXPC3 cells; 120 hours (5 days)) was 0.142, the “MTT assay result, run 4” value (BXPC3 cells; 120 hours (5 days)) was 0.162 and the “MTT assay result, run 5” value (BXPC3 cells; 120 hours (5 days)) was 0.116. The “MTT assay result, run 6” value (BXPC3 cells; 120 hours (5 days)) was 0.129, the “MTT assay result, run 7” value (BXPC3 cells; 120 hours (5 days)) was 0.199 and the “rel amt (relative value set to the control)” value (MiaPaCa-2 cells; 48 hours) was 48. The “MTT assay result, av-blank” value (MiaPaCa-2 cells; 48 hours) was 0.148, the “MTT assay result, av” value (MiaPaCa-2 cells; 48 hours) was 0.194 and the “MTT assay result, run 1” value (MiaPaCa-2 cells; 48 hours) was 0.215. The “MTT assay result, run 2” value (MiaPaCa-2 cells; 48 hours) was 0.184, the “MTT assay result, run 3” value (MiaPaCa-2 cells; 48 hours) was 0.2 and the “MTT assay result, run 4” value (MiaPaCa-2 cells; 48 hours) was 0.187. For the same compound, the “MTT assay result, run 5” value (MiaPaCa-2 cells; 48 hours) was 0.194, the “MTT assay result, run 6” value (MiaPaCa-2 cells; 48 hours) was 0.19 and the “MTT assay result, run 7” value (MiaPaCa-2 cells; 48 hours) was 0.185. The “rel amt (relative value set to the control)” value (MiaPaCa-2 cells; 120 hours (5 days)) was 43, the “MTT assay result, av-blank” value (MiaPaCa-2 cells; 120 hours (5 days)) was 0.773 and the “MTT assay result, av” value (MiaPaCa-2 cells; 120 hours (5 days)) was 0.825. The “MTT assay result, run 1” value (MiaPaCa-2 cells; 120 hours (5 days)) was 0.732, the “MTT assay result, run 2” value (MiaPaCa-2 cells; 120 hours (5 days)) was 0.776 and the “MTT assay result, run 3” value (MiaPaCa-2 cells; 120 hours (5 days)) was 0.786. The “MTT assay result, run 4” value (MiaPaCa-2 cells; 120 hours (5 days)) was 0.714, the “MTT assay result, run 5” value (MiaPaCa-2 cells; 120 hours (5 days)) was 0.939 and the “MTT assay result, run 6” value (MiaPaCa-2 cells; 120 hours (5 days)) was 0.859. For the same compound, the “MTT assay result, run 7” value (MiaPaCa-2 cells; 120 hours (5 days)) was 0.968.
